Source: the supplement of paper PMC11451515

Assays:
SEM cells [1] = assay: AUC of viability dose-response curve (% viability x log10 dose units); higher = less sensitive; details: 48 h
How it was run: (§1)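 Seeding of medium-adapted leukemia cells was at 500 or 1000 cells/well in 1536-well plates, followed by 48 h at 37°C with library compounds in DMSO at 11 threefold doses from 47 μM to 0.79 nM. CellTiter-Glo One luminescence was normalised per plate to DMSO and cell-free wells and fitted as a four-parameter log-logistic function of log10 dose. Area under the curve was integrated by trapezoidal rule, with curves exceeding full viability scaled and curves failing quality control removed.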

NOMO1 [2] = assay: as above; details: 48 h
How it was run: as §1

P12-Ichikawa [3] = assay: as above; details: 48 h
How it was run: as §1

SEM cells [4] = assay: cell viability relative to DMSO control; higher = less cytotoxic; details: 48 h
How it was run: (§2)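 Viability values are per-plate percentages of DMSO wells, with background from cell-free wells. Library compounds in DMSO were pin-dosed, in an 11-point threefold series from 47 μM to 0.79 nM, onto NOMO1 or SEM (500 cells/well) or P12-Ichikawa (1000 cells/well) leukemia cells in 1536-well plates (5 μl). Those cells had been adapted for at least four passages in each medium, and CellTiter-Glo One luminescence was read after 48 h at 37°C.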

NOMO1 [5] = assay: as above; details: 48 h
How it was run: as §2

P12-Ichikawa [6] = assay: as above; details: HPLM + 10% dialyzed FBS, 48 h
How it was run: as §2

CC/1=C(/N2[C@H](SC1)[C@H](NC(=O)C(N)C3=CC=CC=C3)C2=O)C(O)=O (stereo not given in full)
Details	AUC of viability dose-response curve	cell viability [%]
NOMO1 [2], HPLM + 10% dialyzed FBS	457	–
NOMO1 [2], RPMI 5 mM glucose + 10% FBS	459	–
NOMO1 [2], RPMI 5 mM glucose + 10% dialyzed FBS	464	–
P12-Ichikawa [3], HPLM + 10% dialyzed FBS	461	–
P12-Ichikawa [3], RPMI 5 mM glucose + 10% FBS	472	–
P12-Ichikawa [3], RPMI 5 mM glucose + 10% dialyzed FBS	473	–
P12-Ichikawa [6], 0.000781 µM	–	119
P12-Ichikawa [6], 0.00234 µM	–	122
P12-Ichikawa [6], 0.00702 µM	–	129
P12-Ichikawa [6], 0.0211 µM	–	133
P12-Ichikawa [6], 0.0632 µM	–	136
P12-Ichikawa [6], 0.19 µM	–	135
P12-Ichikawa [6], 0.569 µM	–	133
P12-Ichikawa [6], 1.71 µM	–	136
P12-Ichikawa [6], 5.12 µM	–	144
P12-Ichikawa [6], 15.4 µM	–	136
P12-Ichikawa [6], 46.1 µM	–	138
SEM cells [1], HPLM + 10% dialyzed FBS	437	–
SEM cells [1], RPMI 5 mM glucose + 10% FBS	464	–
SEM cells [1], RPMI 5 mM glucose + 10% dialyzed FBS	467	–

cell viability [%]
Details	HPLM + 10% dialyzed FBS	RPMI 5 mM glucose + 10% FBS	RPMI 5 mM glucose + 10% dialyzed FBS
NOMO1 [5], 0.000781 µM	106	–	109
NOMO1 [5], 0.00234 µM	118	–	135
NOMO1 [5], 0.00702 µM	118	–	123
NOMO1 [5], 0.0211 µM	137	–	148
NOMO1 [5], 0.0632 µM	135	–	145
NOMO1 [5], 0.19 µM	136	–	132
NOMO1 [5], 0.569 µM	145	–	149
NOMO1 [5], 1.71 µM	152	–	137
NOMO1 [5], 5.12 µM	137	–	154
NOMO1 [5], 15.4 µM	106	–	146
NOMO1 [5], 46.1 µM	141	–	130
SEM cells [4], 0.000781 µM	99.3	128	115
SEM cells [4], 0.00234 µM	113	118	119
SEM cells [4], 0.00702 µM	119	117	137
SEM cells [4], 0.0211 µM	110	132	143
SEM cells [4], 0.0632 µM	108	155	129
SEM cells [4], 0.19 µM	120	138	140
SEM cells [4], 0.569 µM	120	129	132
SEM cells [4], 1.71 µM	124	141	142
SEM cells [4], 5.12 µM	114	136	132
SEM cells [4], 15.4 µM	126	122	130
SEM cells [4], 46.1 µM	131	131	134
